From a melting point compilation (Tetko et al.; mined from patent text by program, amines drawn as free bases though some values may be those of a salt)

Row | SMILES | melting point [°C]
1 | O=S(c1ccc(C=Cc2nc(CCl)co2)cc1)C(F)(F)F (stereo unspecified) | 102 to 104
2 | CC[C@@]1(C)OC(=O)C(c2ccc(F)c(F)c2)=C1c1ccc(S(C)(=O)=O)cc1 | 144
3 | CC(C)(C)c1ccc(OCC(O)CN2CCC3(CC2)CSC2=C(O3)c3ccccc3C(=O)C2=O)cc1 (stereo unspecified) | 150 to 152
4 | COc1ccc2c(C(=O)N(C=O)CC(=O)O)cccc2c1C(F)(F)F | 142 to 144
5 | COc1ccc(C=C(C=O)C(C=O)=Cc2ccc(OC)c(OC)c2)cc1OC | 149 to 150
6 | NC(=O)c1cc2cc(OCC3CO3)ccc2o1 (stereo unspecified) | 153 to 155
7 | O=C1Nc2ccccc2N(C(=O)CN2C(=O)c3ccccc3C2=O)C2CCCC12 (stereo unspecified) | 207 to 208
8 | Nc1ncnc2c1c(Br)cn2COCCO | 163 to 164
9 | COc1cc(-c2cc(N)n(C)c3nc(N)nc(=O)c2-3)cc(OC)c1OC | > 300
10 | CNS(=O)(=O)Cc1ccc(NC(=N)c2ccc3[nH]cc(CCN)c3c2)cc1 | 63 to 65
11 | COc1ccc(C(O)c2ccccn2)cc1OC (stereo unspecified) | 92 to 94
12 | COC(=O)C(=O)c1ccc(OCCOc2ccc3ccccc3c2)c([N+](=O)[O-])c1 | 127 to 129
13 | COC(=O)c1c(Cc2ccc(C(=O)N(C)C)nc2)c(=O)c2ccc(C)nc2n1-c1ccccc1 | 235 to 236
14 | COc1ccc(SCc2ccccc2)cc1 | 48 to 50
15 | Cc1ccc2c(c1)c(CCNC(=O)c1ccccc1)c1n2C(=O)CCC1 | 171
16 | CCCCCCn1c(=O)[nH]c2ncccc2c1=O | 166 to 168
17 | CCCn1c(=O)nc2sc3ccccc3nc-2c1=O | 258
18 | CCOC(=O)CCCCc1cn(C(c2ccccc2)(c2ccccc2)c2ccccc2)cn1 | 84 to 86
19 | Cc1nn(C)c(-n2ccc3cc(Cl)cnc32)c1/C=C/C(=O)NS(=O)(=O)NCC1CC1 | 209 to 210
20 | O=C1NCCC1Cc1ccccc1 (stereo unspecified) | 112 to 113
21 | O=c1[nH]c2cc(Cl)ccc2c(O)c1-c1ccc(OCc2ccccc2)cc1 | > 350
22 | N#Cc1c(C(F)(F)F)nn(-c2c(Cl)cc(C(F)(F)F)cc2Cl)c1Br | 85 to 87
23 | CC(=O)Nc1cc(CCl)c(I)cn1 | 173 to 174
24 | Cc1ncc(-c2ccc([C@H](C)N3CC[C@](CCCO)(c4ccc(F)cc4)OC3=O)cc2)cn1 | 166 to 168

Row | SMILES | melting point [°C]
25 | O=c1ccn(CCO)c(C(O)c2ccccc2)c1OCc1ccccc1 (single isomer, unassigned; (+)) | 169 to 170
26 | COc1cc2c(cc1Nc1ncc(Cl)c(N[C@@H]3CCCC[C@H]3NS(C)(=O)=O)n1)CCN(CC(=O)N(C)C)CC2 | 92 to 97
27 | COc1cc2c(c(OC(C)=O)c1)C1CCC3(C)C(=O)CCC3C1CC2 (stereo unspecified) | 144 to 145
28 | O=C1NCCOc2cc([N+](=O)[O-])ccc21 | 208 to 209
29 | CC(=O)N1CCN(Cc2cnc(-c3cc4c(Cl)ccc(N(C)S(=O)(=O)c5cccs5)c4[nH]3)s2)CC1 | 224 to 225
30 | Cc1ccc(S(=O)(=O)Nc2cccc3cc(C(N)=O)[nH]c23)cc1 | 312 to 313
31 | C=CCC(O)(CCCc1ccc(Cl)cc1)c1ccc(OCc2ccc3ccccc3n2)cc1 (stereo unspecified) | 87 to 88
32 | O=C(NC[C@H]1CN(c2ccc(N3CCCC3=O)cc2)C(=O)O1)c1ccc(Cl)s1 | 229
33 | CC(Oc1ccc(C(=O)NCCN(O)C(N)=O)cc1)c1ccccc1 (stereo unspecified) | 164 to 166
34 | CS(=O)(=O)OCCc1cc(Nc2ncc3c(n2)-c2ccccc2[C@H](c2ccccc2F)C3)ccc1F | 99 to 100
35 | CC(C)(C)C(=Cc1ccc(Cl)cc1Cl)Cn1cncn1 | 78
36 | COC(=O)NNC(=O)Cc1ccccc1 | 94 to 95
37 | COc1cccc2c1Sc1cc(Cl)ccc1C2 | 72 to 74
38 | COc1ccc2c(c1)C(=O)C(Br)=C(Br)C2=O | 146 to 148
39 | COc1cc(C)c(C(=O)c2c(OC)ncc(Br)c2Cl)c(OC)c1OC | 84 to 87
40 | CCOC(=O)C(=NO)C(C)C | 54 to 55
41 | COc1nc(OC)c(C(C)C)c(C(=O)c2cc(C)cc(C(OC)OC)c2)n1 | 86 to 88
42 | Cc1cc(CCCCCCCCOc2ccc(C3=NCCO3)cc2Cl)on1 | 63 to 64
43 | Cc1nccn2c(-c3ccnc(NCC(C)(C)CO)n3)c(-c3ccc(F)cc3F)nc12 | 174
44 | O=C(c1ccccc1)c1cc(Cl)cc(I)c1O | 110 to 111
45 | CC1(C)CCC(C)(C)c2cc(C(=O)Nc3ccc(I)cc3)ccc21 | 224
46 | CN(C)c1cccc(CC(=O)C(F)(F)c2ccccc2)c1 | 76 to 77
47 | OC1CSC(Oc2cccnc2-c2ccco2)C(O)C1O (stereo unspecified) | 184
48 | COc1ccc(C(=O)n2c(C(=O)O)cc3cc(OC)ccc32)cc1 | 185 to 187

Row | SMILES | melting point [°C]
49 | CCCCCC(C(=O)O)n1cnc2cc(-c3ccccc3-c3nn[nH]n3)ccc21 (stereo unspecified) | 123 to 130
50 | COc1cc(OC)nc(NC(=O)NS(=O)(=O)c2ccccc2OS(=O)(=O)N(C)C)n1 | 165 to 168
51 | COc1ccc(CC2CCN(C(=O)NC(=O)c3ccc(O)cc3)CC2)cc1 | 190
52 | O=C(NC(CN1CCC(=C2c3ccccc3CCc3ccccc32)CC1)C(=O)O)OCc1ccccc1 (stereo unspecified) | 150 to 152
53 | O=C(O)CN1C(=O)C(=Cc2cccc3ccccc23)SC1=S | 241 to 244
54 | CNc1cc(Oc2ccc(NC(=O)Nc3ccc(-c4cccnc4)c(C(F)(F)F)c3)cc2)ncn1 | 118 to 123
55 | COc1cc(C=C(C#N)C(=O)Nc2cccc(Cl)c2)cc(Br)c1O | 217 to 219
56 | O=C(COc1ccccc1C1NC(C(=O)O)CS1)NCCO[N+](=O)[O-] (stereo unspecified) | 99 to 103
57 | Clc1cc(-c2ccc(CBr)c(Cl)c2)ccc1CBr | 148 to 154
58 | CC(C)C(NC(=O)NCc1cccnc1)C(=O)NC(Cc1ccccc1)C(O)C(Cc1ccccc1)NC(=O)C(NC(=O)NCc1cccnc1)C(C)C (stereo unspecified) | 238 to 239
59 | CCOC(=O)c1c(-c2ccc(OC)c(OC)c2)c2cc(C)ccc2n(C)c1=O | 109 to 110
60 | CCOC(=O)c1cn(C(C)F)c2cc(-n3cccc3)c(F)cc2c1=O (stereo unspecified) | 231 to 234
61 | O=C(O)C(=O)CC(=O)c1cccn1Cc1ccccc1 | 150 to 151
62 | COC(=O)c1cc(N)cc(C(F)(F)F)n1 | 114
63 | Cc1onc(-c2ccccc2)c1C(=O)NCCCN1CCN(c2cc(F)ccc2OCC(F)(F)F)CC1 | 123 to 125
64 | CSc1cccc(-c2coc3ccc(-c4nnc(C)o4)cc23)c1 | 99 to 100
65 | CC1(C)C(=O)N(c2ccc(C#N)c(C(F)(F)F)c2)C(=O)N1CCF | 10
66 | Cc1nc(Nc2ccccc2)sc1-c1ccnc(Nc2ccc(N3CCOCC3)cc2)n1 | 290 to 291
67 | O=C1CCCN(Cc2ccc([N+](=O)[O-])cc2Cl)c2ncccc21 | 162
68 | O=c1cc2c(nn1-c1ccc(Cl)cc1)-c1cc(Cl)ccc1S(=O)CC2 (stereo unspecified) | 239 to 241
69 | Cc1cc(-c2nnc3c4ccccc4c(OCc4cc(C(C)(C)C)cnn4)nn23)no1 | 219 to 221
70 | CCCC(Cn1ncnc1S)c1ccc(Cl)cc1Cl (stereo unspecified) | 103
71 | CN1CCc2cc(O)c(O)c(Sc3ccc(F)cc3)c2CC1 | 105 to 114
